Test results: patent publication US9833455B2, “Preparation and methods of use for ortho-aryl 5-membered heteroaryl-carboxamide containing multi-targeted kinase inhibitors” (Spacefill Enterprises LLC, priority 2011, dated 2017)
pIC50: −log10 of the molar value. Read-outs that look alike come from different tables or passages of the source. Values belong to the compound of their own block, whether it stands above or below them.

Assays:
Format in all cases: biochemical
[1] = biological target: AXL (Homo sapiens, UniProt P30530); test: Nanosyn kinase profiling, % inhibition; details: panel of 230 kinases
Procedure: (§1) “Inhibiting kinase activity” means to decrease the production of an phosphor-peptide by a particular kinase that can be separated by analytical techniques. For example, a comprehensive platform of kinase, protease, phosphatase and epigenetic assays that utilizes cutting-edge microfluidics and informatics tools to provide accurate and rapid results. Profiling data in this application were determined using these techniques at Nanosyn Inc. IC50 data were provided by Reaction Biology Inc using a P33 radiolabeled kinase assay.
(§2) More modest activity for Aurora-A, FLT-1/4, KDR, KIT, PDGFRs was accompanied by better activity for B-Raf mutant and wild-type forms, Modest inhibition of MEK-1, BTK, c-Met, RET, and RON was also observed. […] Moreover, the observed inhibition of MEK-1 with 1-12 and TYK2 with I-6 represents additional activities against kinases for which no type-II inhibitors have been reported to date. […] To further evaluate the scope of inhibition, I-6 was evaluated against a larger panel of 230 kinases, Table-22.

[2] = biological target: FGR (Homo sapiens, UniProt P09769); test: Nanosyn kinase profiling, % inhibition; details: panel of 230 kinases
Procedure: as §1, §2

[3] = biological target: JAK2 (Homo sapiens, UniProt O60674); test: Nanosyn kinase profiling, % inhibition; details: panel of 230 kinases
Procedure: as §1, §2

[4] = biological target: SIK (Homo sapiens, UniProt P57059); test: Nanosyn kinase profiling, % inhibition; details: panel of 230 kinases
Procedure: as §1, §2

[5] = biological target: TRKC (Homo sapiens, UniProt Q16288); test: Nanosyn kinase profiling, % inhibition; details: panel of 230 kinases
Sequence of TRKC (Q16288 32-839): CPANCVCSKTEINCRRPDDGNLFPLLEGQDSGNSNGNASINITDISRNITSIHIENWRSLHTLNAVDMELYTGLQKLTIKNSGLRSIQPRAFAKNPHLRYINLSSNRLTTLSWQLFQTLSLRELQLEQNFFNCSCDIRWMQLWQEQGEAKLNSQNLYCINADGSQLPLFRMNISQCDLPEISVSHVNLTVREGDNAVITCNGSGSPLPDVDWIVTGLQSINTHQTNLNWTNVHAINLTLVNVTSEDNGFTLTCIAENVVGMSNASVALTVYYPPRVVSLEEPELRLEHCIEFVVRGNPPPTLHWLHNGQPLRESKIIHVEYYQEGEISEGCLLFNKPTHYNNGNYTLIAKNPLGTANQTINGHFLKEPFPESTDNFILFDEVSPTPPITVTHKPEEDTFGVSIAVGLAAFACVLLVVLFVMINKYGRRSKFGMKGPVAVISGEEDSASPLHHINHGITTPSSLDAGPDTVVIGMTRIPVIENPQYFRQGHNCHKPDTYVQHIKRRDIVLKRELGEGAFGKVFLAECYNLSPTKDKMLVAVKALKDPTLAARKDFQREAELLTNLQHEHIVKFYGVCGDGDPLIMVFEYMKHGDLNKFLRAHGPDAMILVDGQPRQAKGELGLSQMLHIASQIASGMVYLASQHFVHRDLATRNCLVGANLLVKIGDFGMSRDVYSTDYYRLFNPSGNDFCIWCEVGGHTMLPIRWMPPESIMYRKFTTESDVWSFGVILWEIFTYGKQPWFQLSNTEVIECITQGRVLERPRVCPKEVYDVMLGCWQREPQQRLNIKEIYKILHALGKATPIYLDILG
Procedure: as §1, §2

[6] = biological target: MNK2 (Homo sapiens, UniProt Q9HBH9); test: Nanosyn kinase profiling, % inhibition; details: panel of 230 kinases
Procedure: as §1, §2

[7] = biological target: HCK (Homo sapiens, UniProt P08631); test: Nanosyn kinase profiling, % inhibition; details: panel of 230 kinases
Procedure: as §1, §2

[8] = biological target: EPH-B4 (Homo sapiens, UniProt P54760); test: Nanosyn kinase profiling, % inhibition; details: panel of 230 kinases
Procedure: as §1, §2

[9] = biological target: SRMS (Homo sapiens, UniProt Q9H3Y6); test: Nanosyn kinase profiling, % inhibition; details: panel of 230 kinases
Procedure: as §1, §2

[10] = biological target: EPH-A3 (Homo sapiens, UniProt P29320); test: Nanosyn kinase profiling, % inhibition; details: panel of 230 kinases
Procedure: as §1, §2

[11] = biological target: MEK2 (Homo sapiens, UniProt P36507); test: Nanosyn kinase profiling, % inhibition; details: panel of 230 kinases
Procedure: as §1, §2

[12] = biological target: MAP4K2 (Homo sapiens, UniProt Q12851); test: Nanosyn kinase profiling, % inhibition; details: panel of 230 kinases
Procedure: as §1, §2

[13] = biological target: MER (Homo sapiens, UniProt Q12866); test: Nanosyn kinase profiling, % inhibition; details: panel of 230 kinases
Sequence of MER (Q12866 21-999): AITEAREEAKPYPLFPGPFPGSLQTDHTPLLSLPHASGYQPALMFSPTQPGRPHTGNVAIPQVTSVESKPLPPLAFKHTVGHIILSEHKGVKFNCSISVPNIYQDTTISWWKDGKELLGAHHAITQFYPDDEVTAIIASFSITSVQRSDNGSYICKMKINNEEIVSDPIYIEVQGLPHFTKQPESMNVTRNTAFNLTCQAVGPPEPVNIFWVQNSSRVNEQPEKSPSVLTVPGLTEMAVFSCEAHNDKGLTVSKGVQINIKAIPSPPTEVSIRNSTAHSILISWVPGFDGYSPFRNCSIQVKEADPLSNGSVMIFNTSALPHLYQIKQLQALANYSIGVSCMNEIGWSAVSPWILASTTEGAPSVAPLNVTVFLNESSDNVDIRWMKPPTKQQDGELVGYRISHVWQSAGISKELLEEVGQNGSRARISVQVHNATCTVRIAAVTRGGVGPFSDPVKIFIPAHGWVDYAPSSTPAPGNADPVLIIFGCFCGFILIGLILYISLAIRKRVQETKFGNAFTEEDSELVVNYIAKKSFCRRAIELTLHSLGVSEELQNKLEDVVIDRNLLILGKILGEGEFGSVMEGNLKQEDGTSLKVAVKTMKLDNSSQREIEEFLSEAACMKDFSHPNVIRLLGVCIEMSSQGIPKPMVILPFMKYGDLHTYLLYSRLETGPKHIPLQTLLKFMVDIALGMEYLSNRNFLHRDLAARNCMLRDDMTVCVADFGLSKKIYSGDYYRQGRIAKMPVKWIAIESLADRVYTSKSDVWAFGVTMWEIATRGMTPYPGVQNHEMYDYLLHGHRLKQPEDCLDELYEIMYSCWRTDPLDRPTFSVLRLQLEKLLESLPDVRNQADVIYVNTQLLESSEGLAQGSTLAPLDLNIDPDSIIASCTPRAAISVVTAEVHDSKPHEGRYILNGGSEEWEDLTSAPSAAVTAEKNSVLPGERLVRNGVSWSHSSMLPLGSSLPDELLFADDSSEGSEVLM
Procedure: as §1, §2

[14] = biological target: SPHK1 (Homo sapiens, UniProt Q9NYA1); test: Nanosyn kinase profiling, % inhibition; details: panel of 230 kinases
Sequence of SPHK1 (Q9NYA1 whole entry): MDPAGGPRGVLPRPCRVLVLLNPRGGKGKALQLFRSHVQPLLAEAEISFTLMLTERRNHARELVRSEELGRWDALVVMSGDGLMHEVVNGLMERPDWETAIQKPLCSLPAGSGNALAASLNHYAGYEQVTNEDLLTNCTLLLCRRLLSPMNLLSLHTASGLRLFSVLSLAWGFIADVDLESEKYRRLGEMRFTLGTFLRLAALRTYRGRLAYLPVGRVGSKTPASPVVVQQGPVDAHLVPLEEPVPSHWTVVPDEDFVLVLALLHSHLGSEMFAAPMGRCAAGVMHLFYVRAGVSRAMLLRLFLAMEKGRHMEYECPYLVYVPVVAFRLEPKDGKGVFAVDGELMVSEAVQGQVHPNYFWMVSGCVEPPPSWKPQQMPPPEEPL
Procedure: as §1, §2

[15] = biological target: HIPK3 (Homo sapiens, UniProt Q9H422); test: Nanosyn kinase profiling, % inhibition; details: panel of 230 kinases
Procedure: as §1, §2

[16] = biological target: EPH-A4 (Homo sapiens, UniProt P54764); test: Nanosyn kinase profiling, % inhibition; details: panel of 230 kinases
Procedure: as §1, §2

[17] = biological target: PTK5 (Homo sapiens, UniProt P42685); test: Nanosyn kinase profiling, % inhibition; details: panel of 230 kinases
Procedure: as §1, §2

[18] = biological target: FER (Homo sapiens, UniProt P16591); test: Nanosyn kinase profiling, % inhibition; details: panel of 230 kinases
Procedure: as §1, §2

[19] = biological target: TRKB (Homo sapiens, UniProt Q16620); test: Nanosyn kinase profiling, % inhibition; details: panel of 230 kinases
Procedure: as §1, §2

[20] = biological target: T1, MKNK1 (Homo sapiens, UniProt Q9BUB5); test: Nanosyn kinase profiling, % inhibition; details: panel of 230 kinases
T1 construct: literature Ambit Biosciences
Procedure: as §1, §2

[21] = biological target: HIPK4 (Homo sapiens, UniProt Q8NE63); test: Nanosyn kinase profiling, % inhibition; details: panel of 230 kinases
Procedure: as §1, §2

[22] = biological target: MAP4K5 (Homo sapiens, UniProt Q9Y4K4); test: Nanosyn kinase profiling, % inhibition; details: panel of 230 kinases
Procedure: as §1, §2

[23] = biological target: EPH-A5 (Homo sapiens, UniProt P54756); test: Nanosyn kinase profiling, % inhibition; details: panel of 230 kinases
Procedure: as §1, §2

[24] = biological target: SPHK2 (Homo sapiens, UniProt Q9NRA0); test: Nanosyn kinase profiling, % inhibition; details: panel of 230 kinases
Procedure: as §1, §2

[25] = biological target: YES (Homo sapiens, UniProt P07947); test: Nanosyn kinase profiling, % inhibition; details: panel of 230 kinases
Procedure: as §1, §2

[26] = biological target: PRKD3 (Homo sapiens, UniProt O94806); test: Nanosyn kinase profiling, % inhibition; details: panel of 230 kinases
Procedure: as §1, §2

[27] = biological target: LOK (Homo sapiens, UniProt O94804); test: Nanosyn kinase profiling, % inhibition; details: panel of 230 kinases
Procedure: as §1, §2

[28] = biological target: PAK1 (Homo sapiens, UniProt Q13153); test: Nanosyn kinase profiling, % inhibition; details: panel of 230 kinases
Procedure: as §1, §2

[29] = biological target: LCK (Homo sapiens, UniProt P06239); test: Nanosyn kinase profiling, % inhibition; details: panel of 230 kinases
Procedure: as §1, §2

[30] = biological target: TRKA (Homo sapiens, UniProt P04629); test: Nanosyn kinase profiling, % inhibition; details: panel of 230 kinases
Procedure: as §1, §2

[31] = biological target: EPH-A8 (Homo sapiens, UniProt P29322); test: Nanosyn kinase profiling, % inhibition; details: panel of 230 kinases
Sequence of EPH-A8 (P29322 28-1005): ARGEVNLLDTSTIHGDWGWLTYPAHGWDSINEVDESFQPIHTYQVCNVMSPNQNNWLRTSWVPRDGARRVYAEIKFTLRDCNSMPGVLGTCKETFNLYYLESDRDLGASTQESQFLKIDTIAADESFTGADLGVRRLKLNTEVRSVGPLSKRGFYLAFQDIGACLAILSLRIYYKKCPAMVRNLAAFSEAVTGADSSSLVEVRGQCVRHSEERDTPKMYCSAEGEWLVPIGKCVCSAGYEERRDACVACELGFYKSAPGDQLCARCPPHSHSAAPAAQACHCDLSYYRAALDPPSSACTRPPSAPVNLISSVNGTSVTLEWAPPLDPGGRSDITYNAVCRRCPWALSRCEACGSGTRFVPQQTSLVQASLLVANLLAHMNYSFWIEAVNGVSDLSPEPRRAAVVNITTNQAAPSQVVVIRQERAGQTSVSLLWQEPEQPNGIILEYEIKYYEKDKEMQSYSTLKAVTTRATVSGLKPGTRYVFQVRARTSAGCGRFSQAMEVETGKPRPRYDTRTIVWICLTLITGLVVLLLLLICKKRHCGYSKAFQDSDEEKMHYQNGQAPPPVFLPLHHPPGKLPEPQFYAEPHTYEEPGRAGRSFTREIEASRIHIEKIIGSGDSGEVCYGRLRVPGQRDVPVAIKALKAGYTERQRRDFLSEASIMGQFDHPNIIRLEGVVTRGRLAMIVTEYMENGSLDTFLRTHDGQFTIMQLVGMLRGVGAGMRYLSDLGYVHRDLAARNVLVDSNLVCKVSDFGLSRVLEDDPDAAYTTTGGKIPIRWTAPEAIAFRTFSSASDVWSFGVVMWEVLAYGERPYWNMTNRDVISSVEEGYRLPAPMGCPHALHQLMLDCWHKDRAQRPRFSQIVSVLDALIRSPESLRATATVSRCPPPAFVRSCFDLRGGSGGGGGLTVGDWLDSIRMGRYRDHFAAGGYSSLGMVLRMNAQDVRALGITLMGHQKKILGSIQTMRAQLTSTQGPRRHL
Procedure: as §1, §2

[32] = biological target: ARG (Homo sapiens, UniProt P42684); test: Nanosyn kinase profiling, % inhibition; details: panel of 230 kinases
Sequence of ARG (P42684 whole entry): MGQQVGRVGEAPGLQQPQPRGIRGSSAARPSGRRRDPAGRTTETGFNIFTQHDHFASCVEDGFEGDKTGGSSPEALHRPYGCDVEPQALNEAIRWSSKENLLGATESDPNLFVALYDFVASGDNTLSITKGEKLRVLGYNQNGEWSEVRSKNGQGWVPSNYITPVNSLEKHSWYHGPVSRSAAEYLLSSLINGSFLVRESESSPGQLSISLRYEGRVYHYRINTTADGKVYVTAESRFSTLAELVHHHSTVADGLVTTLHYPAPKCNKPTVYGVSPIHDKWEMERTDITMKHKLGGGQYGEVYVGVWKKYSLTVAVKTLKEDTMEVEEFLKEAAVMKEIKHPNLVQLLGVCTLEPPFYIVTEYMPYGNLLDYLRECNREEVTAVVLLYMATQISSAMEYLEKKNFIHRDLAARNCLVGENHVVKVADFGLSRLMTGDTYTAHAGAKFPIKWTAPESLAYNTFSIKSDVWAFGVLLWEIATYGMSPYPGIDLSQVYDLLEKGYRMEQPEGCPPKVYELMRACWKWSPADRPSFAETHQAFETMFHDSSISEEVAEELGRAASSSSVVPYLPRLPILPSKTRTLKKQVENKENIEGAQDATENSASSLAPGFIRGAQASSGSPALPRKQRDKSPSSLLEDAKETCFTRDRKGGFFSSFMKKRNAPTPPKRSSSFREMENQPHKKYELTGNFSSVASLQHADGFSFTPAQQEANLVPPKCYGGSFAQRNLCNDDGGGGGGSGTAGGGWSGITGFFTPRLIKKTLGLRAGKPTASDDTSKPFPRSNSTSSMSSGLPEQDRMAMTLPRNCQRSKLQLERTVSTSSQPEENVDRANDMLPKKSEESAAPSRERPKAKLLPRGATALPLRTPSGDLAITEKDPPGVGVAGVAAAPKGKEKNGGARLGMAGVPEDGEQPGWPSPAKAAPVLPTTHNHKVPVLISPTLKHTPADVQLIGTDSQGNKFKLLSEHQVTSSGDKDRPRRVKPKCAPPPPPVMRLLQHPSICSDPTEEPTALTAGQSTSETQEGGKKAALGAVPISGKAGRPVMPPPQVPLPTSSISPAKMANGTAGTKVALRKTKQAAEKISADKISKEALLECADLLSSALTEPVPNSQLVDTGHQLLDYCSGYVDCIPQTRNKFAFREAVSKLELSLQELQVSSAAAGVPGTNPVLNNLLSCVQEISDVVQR
Procedure: as §1, §2

[33] = biological target: EPH-B1 (Homo sapiens, UniProt P54762); test: Nanosyn kinase profiling, % inhibition; details: panel of 230 kinases
Procedure: as §1, §2

[34] = biological target: LYNB (Homo sapiens, UniProt P07948); test: Nanosyn kinase profiling, % inhibition; details: panel of 230 kinases
Procedure: as §1, §2

[35] = biological target: T2, RAF1 (Homo sapiens, UniProt P04049); test: Reaction Biology P33 radiolabeled kinase assay, IC50 and time dependence; details: for pIC50: ATP 10 uM, read-out: Compound IC50* RAF1
T2 construct: literature Ambit Biosciences
T2 sequence (P04049 whole entry): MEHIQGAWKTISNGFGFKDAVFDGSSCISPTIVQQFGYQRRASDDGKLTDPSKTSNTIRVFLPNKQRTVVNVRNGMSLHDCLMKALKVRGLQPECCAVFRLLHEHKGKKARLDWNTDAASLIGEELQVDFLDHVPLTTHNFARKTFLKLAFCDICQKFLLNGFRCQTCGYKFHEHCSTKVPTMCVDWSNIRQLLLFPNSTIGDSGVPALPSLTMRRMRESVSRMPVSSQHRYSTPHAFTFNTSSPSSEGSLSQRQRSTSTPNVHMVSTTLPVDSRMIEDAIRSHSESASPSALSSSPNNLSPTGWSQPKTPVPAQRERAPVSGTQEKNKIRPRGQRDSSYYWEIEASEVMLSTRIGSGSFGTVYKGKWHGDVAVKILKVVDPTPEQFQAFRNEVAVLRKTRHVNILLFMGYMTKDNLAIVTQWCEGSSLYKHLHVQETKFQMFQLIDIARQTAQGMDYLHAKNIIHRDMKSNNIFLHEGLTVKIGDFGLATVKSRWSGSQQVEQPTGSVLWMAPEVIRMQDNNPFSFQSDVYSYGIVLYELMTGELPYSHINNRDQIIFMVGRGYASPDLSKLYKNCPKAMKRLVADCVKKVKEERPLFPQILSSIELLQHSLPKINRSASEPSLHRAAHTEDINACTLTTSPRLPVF
Procedure: as §1
The observation of potency and isoform selectivity with time-dependency for PI3K-γ appears to be unprecedented in the literature. In addition, these activities combined with inhibition of p38-α, Raf-1, DDR and CSF-1R, would be complimentary and potentially synergistic activities for both the treatment of certain inflammation based conditions and cancers.

inhibition at 5 µM [1]: ≥ 50%
inhibition at 5 µM [2]: ≥ 50%
inhibition at 5 µM [3]: ≥ 50%
inhibition at 5 µM [4]: ≥ 50%
inhibition at 5 µM [5]: ≥ 50%
inhibition at 5 µM [6]: ≥ 50%
inhibition at 5 µM [7]: ≥ 50%
inhibition at 5 µM [8]: ≥ 50%
inhibition at 5 µM [9]: ≥ 50%
inhibition at 5 µM [10]: ≥ 50%
inhibition at 5 µM [11]: ≥ 50%
inhibition at 5 µM [12]: ≥ 50%
inhibition at 5 µM [13]: ≥ 50%
inhibition at 5 µM [14]: ≥ 50%
inhibition at 5 µM [15]: ≥ 50%
inhibition at 5 µM [16]: ≥ 50%
inhibition at 5 µM [17]: ≥ 50%
inhibition at 5 µM [18]: ≥ 50%
inhibition at 5 µM [19]: ≥ 50%
inhibition at 5 µM [20]: ≥ 50%
inhibition at 5 µM [21]: ≥ 50%
inhibition at 5 µM [22]: ≥ 50%
inhibition at 5 µM [23]: ≥ 50%
inhibition at 5 µM [24]: ≥ 50%
inhibition at 5 µM [25]: ≥ 50%
inhibition at 5 µM [26]: ≥ 50%
inhibition at 5 µM [27]: ≥ 50%
inhibition at 5 µM [28]: ≥ 50%
inhibition at 5 µM [29]: ≥ 50%
inhibition at 5 µM [30]: ≥ 50%
inhibition at 5 µM [31]: ≥ 50%
inhibition at 5 µM [32]: ≥ 50%
inhibition at 5 µM [33]: ≥ 50%
inhibition at 5 µM [34]: ≥ 50%
Structure (SMILES): CNC(=O)c1cc(Oc2ccc(NC(=O)c3nc(C(F)(F)F)[nH]c3-c3ccc(F)cc3)cc2)ccn1 [Inhibitor I-6, 4-(4-{[5-(4-Fluoro-phenyl)-2-trifluoromethyl-3H-imidazole-4-carbonyl]-amino}-phenoxy)-pyridine-2-carboxylic acid methylamide]

Time Dependence Observed? RAF1 ([35]; 15 vs 60 Min preincubation): Yes
pIC50 ([35]; preincubation 15 Min): 7.02
pIC50 ([35]; preincubation 60 Min): 7.09
Structure (SMILES): Cc1ccc(NC(=O)c2nc(S(C)(=O)=O)[nH]c2-c2ccc(F)cc2)cc1Nc1nccc(-c2cccnc2)n1 [Inhibitor I-14, 3-(4-(pyridin-3-yl)-pyrimidinyl-2-yl)amino-4-methyl-analine, 5-(4-Fluorophenyl)-2-(methylsulfonyl)-1H-imidazole-4-carboxamide]
